# Measured values from patent publication US20090326008A1, “NF-kappa B Inhibitor” (priority 2006, published 2009).
# Tested on: NF-κB
# Assay: NF-kappaB reporter assay (pNF-kappaB-SEAP) in IL-1β-stimulated MKN-45 cells
# Format: cell-based, human
# Details: IL-1β 2 ng/mL for 6 hours, DMSO (0.05%) control = 1.00, triplicate
# Method: pNF-kappaB-SEAP was obtained from Clonetech Laboratories Inc.
# Cryopreserved MKN-45 cells (product of JCRB (Japanese Collection of Research Bioresources)) were thawed and cultured in a standard medium in an incubator (37° C., 5% CO2). Every three to five days, the cells were recovered by treatment with Trypsin-EDTA, then adequately diluted and subcultured. MKN-45 cells subcultured two or more times with a survival rate of 95% or more were used in each experiment.
# The subcultured MKN-45 cells were harvested using Trypsin-EDTA solution, and the number of viable cells was counted. The cells were suspended in a standard medium to yield a 1.5×10^5 cells/mL suspension. A 24-well plate was seeded with 500 μL/well of the cell suspension, and the cells were cultured in an incubator (37° C., 5% CO2).
# The day after seeding, transfection was performed according to the following protocol.
# (4.1) Preparation of Plasmid Solution 4 μL of 0.1 μg/μL pNFkappaB-SEAP was placed into each well and diluted with 50 μL of OPTI-MEM I (product of Invitrogen Japan K.K.) by mixing by inversion.
# 1 μL of Lipofectamine 2000 reagent (product of Invitrogen) was placed into each well and diluted with 50 μL of OPTI-MEM I (product of Life Technologies Inc.) by mixing by inversion. The mixture was allowed to stand at room temperature for 5 to 10 minutes to prepare a Lipofectamine dilution.
# The plasmid solution and the Lipofectamine dilution were mixed by inversion and allowed to stand at room temperature for 20 to 30 minutes to prepare a transfection mixture.
# The culture medium was removed from the 24-well plate by suction. While care was taken not to dry the subcultured MKN-45 cells, the inner surface of the wells was washed with 1 mL/well of PBS. After the medium was replaced with 500 μL/well of OPTI-MEM I (product of Life Technologies Inc.), 100 μL/well of the transfection mixture was added, and the cells were cultured in a incubator (37° C., 5% CO2). After about 5 hours of incubation, the medium was replaced with a standard medium, and the cells were further cultured in a CO2 incubator (37° C., 5% CO2) until the following day.
# On the following morning, the culture medium supernatant was removed by suction and replaced with 1 mL/well of the test compound solution or control solution diluted with a standard medium. The cells were cultured in a CO2 incubator (37° C., 5% CO2) for 1 hour. Each experiment was performed in triplicate.
# 200 ng/mL IL-1β was added in an amount of 10 μL/well (final concentration: 2 ng/mL), and the cells were cultured in a CO2 incubator (37° C., 5% CO2) for 6 hours.
# A reporter assay was performed using Reporter Assay Kit-SEAP (product of Toyobo Co.) according to the manufacturer's protocol.
# More specifically, 500 μL of the culture broth was transferred into a tube and centrifuged at 15,000 rpm for 5 minutes at 4° C. The supernatant was transferred into a 96-well white plate. The positive control included in the Reporter Assay Kit-SEAP, and a standard medium as a blank control were each added in an amount of 20 μL/well to the 96-well white plate. Further, an inhibitor for inhibiting the AP activity of the MKN-45 cells was added in an amount of 20 μL/well. After sealing the plate, the contents were mixed well. The plate was placed into a CO2 incubator (37° C., 5% CO2) and allowed to stand for 30 minutes. Subsequently, the plate was allowed to stand on ice for 1 minute, followed by addition of 160 μL/well of Lumi-Phos Plus (a chemiluminescent substrate, product of Lumigen Inc.). The plate was sealed again and placed in a light-shielded state into a CO2 incubator (37° C., 5% CO2). After the plate was allowed to stand for 15 to 30 minutes, luminescence was measured for about 5 to about 10 seconds using a luminometer.
# The results of the reporter assay were expressed as Percent Control (or Inhibition), calculated according to the following formulae. The luminescence of each sample was calculated by subtracting the average of blank samples.
compound,measurement,value
COc1ccc(CC2SC(=S)NC2=O)c2c1N(CCC(C)C)C(=O)CC2 (stereo not shown) [Test Compound 965],"NF-kappaB reporter (SEAP luminescence) IL-1b(+) mean, relative to control",0.68
